Assays:
[1] = tested on: Siglec-2; settings: cited from earlier work
[2] = molecular target: T1, Siglec-2 Fc chimeras (Homo sapiens, UniProt P20273); experiment: Surface Plasmon Resonance (SPR) assay; assay type: binding
T1 construct: the three N-terminal Ig-domains of Siglec-2 were fused to the C-terminal human IgG1 Fc domain; made in house; host or cells: CHO-Lec1
Description: Recombinant Siglec-2 (CD22) Fc-chimeras were expressed in CHO-Lec1 and protein purification was performed as described. The recombinant Siglec-2-Fc chimera, in which the three N-terminal Ig-domains of Siglec-2 were fused to the C-terminal human IgG1 Fc domain, was expressed in CHO-Lec1 cells.
Siglec-Fc chimeras were either captured to anti-Fc antibody-derivatised dextran surface of a Reichert SR7500DC flow cell or directly immobilized by amide coupling. N-acetylneuraminic acid derivatives at various concentrations in PBS were passed over the flow cell at a flow rate of 20 μL/min followed by buffer for dissociation. Specific binding was determined by subtracting the signal obtained from the reference cell (ethanolamine derivatised dextran surface) from the sample cell derivatised with Siglec-2 Fc chimeras. The data were analysed and fitted using the software Scrubber (BioLogic). Corresponding sensorgrams for 7 and 8 are shown in Supplementary Figure 2a,b, respectively.

[3] = tested on: T2, Siglec-2 expressed on intact Burkitt's lymphoma (BL) Daudi cells; experiment: STD NMR binding to intact BL Daudi cells; design: species or system human; settings: for STD NMR signals in the presence of BL Daudi cells: 0.5 mM ligand, 5.0 × 10^5 BL Daudi cells, 283 K
T2 construct: host or cells: BL Daudi cells
Text: Anti-human Siglec-1 (CD169)-FITC, (clone: 7-239); Siglec-3 (CD33)-FITC, (clone: AC104.3E3); Siglec-5 (CD170)-FITC (clone: 1A5); Siglec-7 (CD328)-VioBlue, (clone: REA214); Siglec-8-FITC, (clone: 7C9) and relevant isotype controls were purchased from Miltenyi Biotech (Bergisch Gladbach, Germany, UE). Mouse anti-human Siglec-2 (CD22) primary antibody (clone RFB4) and the relevant isotype control (clone 1E2.2) were purchased from Merck Group (Darmstadt, Germany, UE). The rat anti-mouse secondary antibody BV421 conjugated was purchased from BD Biosciences (San Jose, CA, USA). Rabbit anti-human Siglec-4 (Myelin Associated Glycoprotein, MAG) was purchased from LifeSpan BioSciences (Seattle, WA, USA). The Donkey anti-rabbit secondary antibody (Clone Poly4064)-BV421 conjugated was purchased from Biolegend (San Diego, CA, USA). Anti-human Siglec-5/Siglec-14-APC (Clone 194128), Siglec-6 (CD327)-APC (Clone 767329), Siglec-9-FITC (Clone 191240); Goat Siglec-10-PE Affinity Purified PAb, Goat Siglec-11-PE Affinity Purified PAb, Goat IgG-PE control, Siglec-16-APC (Clone 706022), and relevant isotypes were purchased from R&D Systems (Minneapolis, MN, USA). BL Daudi and HEK293T cells were incubated with the antibodies for one hour at 4 °C in PBS supplemented with 1% FCS (PBS-FBS) at a ratio of 1 μg of antibody per 1 × 10^6 cells. The cells were washed three times and then suspended in 1 mL of PBS-FBS buffer prior to flow cytometry analysis. Propidium iodide was used at a concentration of 10 ug/mL to differentiate viable from non-viable cells. Secondary antibodies were used according to the suppliers’ instructions. A CyAn ADP Flow Cytometer and Kaluza Flow Cytometry software were used for flow cytometric analysis (Beckman Coulter, Brea, CA, USA). For sorting the BL Daudi cells into Siglec-2^low and Siglec-2^high fractions, antibody staining was achieved as described above. RPMI-1640 medium containing 50% v/v FBS was used for collecting sorted cells to minimise cell damage. Cells were sorted into low and high expressing Siglec-2 groups based on their fluorescence intensity, using MoFlo XDP (Beckman Coulter, CA, USA).
(§1) STD NMR spectra were performed using a Bruker Advance 600 MHz spectrometer, equipped with a 5-mm TXI probe with triple axis gradients at 283 K. 5 × 10^5 BL Daudi and 1 × 10^6 HEK293T cells were washed three times with the optimised deuterated NMR buffer by centrifugation at 1,300 rpm, at room temperature for 5 min and resuspending in 200 μL. The ligand concentration was adjusted to 0.5 mM for all experiments. To determine the binding epitope of the ligands when bound to cells STDD (Saturation Transfer Double Difference) spectra were generated by subtracting STD NMR signals from the ligand-cell complex from the spectrum obtained in the absence of cells or protein.
Mild periodate treatment to disrupt cis-binding was performed following published procedures. BL Daudi cells were resuspended in phosphate buffer (pH 7.4) containing freshly dissolved 2 mM NaIO4 and incubated at 4 °C in the dark. After 30 min, the excess of periodate was quenched by adding 10 μL of 20% deuterated glycerol followed by immediate washing with deuterated buffer optimised for cell NMR experiments. The STD NMR on-resonance frequency was set to −1.00 ppm and the off-resonance to 300 ppm. To ensure the viability of the cells during NMR acquisition 256 scans were chosen resulting in a total acquisition time of 53 min.

[4] = tested on: T3, Siglec-2 transiently expressed on HEK293T cells; experiment: STD NMR binding to untransfected and Siglec-2 transfected HEK293T cells; design: species or system human
T3 construct: host or cells: HEK293T
Description: as §1
The full-length codon-optimized coding sequence of Siglec-2 (Uniprot entry P20273-1) cloned in plasmid pD2517 was purchased from DNA2.0 (Menlo Park, CA, USA). Plasmid amplification was performed by transformation into chemically competent E. coli NEB 5-alpha (Ipswich, MA, USA) followed by purification using a NucleoBond XTRA EF Plasmid Purification Kit (Machery Nagel, Duren, Germany, EU). […] Transfection efficiency was monitored by flow cytometry analysis 24 and 48 h post-transfection. […]

[5] = design: method as in PMID 10589082; settings: patients treated with Rituximab; cited from earlier work

T1 sequence (P20273 with tags, fused parts or gaps limits assumed): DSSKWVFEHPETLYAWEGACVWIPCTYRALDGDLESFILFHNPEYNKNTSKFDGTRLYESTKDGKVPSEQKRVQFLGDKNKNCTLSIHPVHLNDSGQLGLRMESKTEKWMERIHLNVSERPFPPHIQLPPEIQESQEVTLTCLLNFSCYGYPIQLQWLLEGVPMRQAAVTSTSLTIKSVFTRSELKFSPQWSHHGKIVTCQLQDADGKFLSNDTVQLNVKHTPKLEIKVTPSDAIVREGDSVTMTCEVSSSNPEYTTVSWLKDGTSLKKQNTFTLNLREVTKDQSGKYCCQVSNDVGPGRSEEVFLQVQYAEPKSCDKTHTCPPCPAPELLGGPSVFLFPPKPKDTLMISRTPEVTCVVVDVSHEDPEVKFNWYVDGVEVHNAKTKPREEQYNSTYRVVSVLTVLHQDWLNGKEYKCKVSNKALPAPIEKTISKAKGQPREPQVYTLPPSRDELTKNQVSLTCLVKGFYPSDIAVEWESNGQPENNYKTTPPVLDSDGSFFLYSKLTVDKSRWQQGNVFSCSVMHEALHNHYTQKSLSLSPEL

For `COC1(C(=O)O)CC(O)C(NC(C)=O)C(C(O)C(O)CO)O1` (stereo not drawn) [compound 1, Neu5Acα2Me], the IC50 ([1]; read-out: IC50 value (binding potency for Siglec-2)) is given as 1.4 mM.
For `COC1(C(=O)O)CC(O)C(NC(C)=O)C(C(O)C(O)CNC(=O)c2ccc(-c3ccccc3)cc2)O1` (stereo not drawn) [compound 2, 9-BPC-Neu5Acα2Me, reference compound], the Kd [2] is listed as 4340 nM and the “increase of overall potency by a factor” value ([1]; relative to Neu5Acα2Me (1)) is listed as 224.
With `COC1(C(=O)O)CC(NC(=O)c2cccc([N+](=O)[O-])c2)C(NC(C)=O)C(C(O)C(O)CNC(=O)c2ccc(-c3ccccc3)cc2)O1` (stereo not drawn) [compound 3, 9-biphenylcarboxamido-4-meta-nitrophenyl-carboxamido-Neu5Acα2Me] the Kd [2] was 660 nM, the “STD NMR signals in the presence of BL Daudi cells” value (shortened to “STD NMR signals in the presence”) [3] was “strong and significant signals” and the “increase in absolute STD NMR signal intensity, Siglec-2^high versus Siglec-2^low BL Daudi cells” value ([3]; N-acetyl methyl protons, 5.0 × 10^5 sorted cells) was 46%. The “change in STD NMR signal intensities with periodate pretreated BL Daudi cells” value ([3]; cells pre-treated with 2 mM NaIO4, versus untreated cells) was “significant increase”, the “increase in STD NMR signal intensity, Siglec-2 transfected versus untransfected HEK293T cells” value ([4]; 1.0 × 10^6 cells, 283 K) was 75 fold and the “STD NMR signal intensity with non-transfected HEK293T cells” value ([4]; 1.0 × 10^6 untransfected cells) was “Very low signal intensity”. For the same compound, the “fold higher affinity than 9-BPC-Neu5Acα2Me (2)” value ([1]; relative to 2) was 15 fold.
For `CC(=O)N[C@@H]1[C@@H](NC(=O)c2cccc([N+](=O)[O-])c2)[C@H](O)[C@](OCc2cn(CC(=O)O)nn2)(C(=O)O)O[C@H]1[C@H](O)[C@H](O)CNC(=O)c1ccc(-c2ccccc2)cc1` [compound 7], the Kd [2] was 182 nM and the “STD NMR signals in the presence” value [3] was “strong STD NMR signals”.
With `COc1cccc(C(=O)N[C@@H]2[C@@H](NC(C)=O)[C@H]([C@H](O)[C@H](O)CNC(=O)c3ccc(-c4ccccc4)cc3)O[C@@](OCc3cn(CC(=O)O)nn3)(C(=O)O)[C@H]2O)c1` [compound 8, 9-BPC-2-(4-carboxymethyl-[1,2,3]triazol-1-yl)-3-hydroxy-4-meta-methoxyphenyl-carboxamido-Neu5Acα2Me] the Kd [2] was 175 nM.
In the case of `OC[C@H]1O[C@@](CO)(O[C@H]2O[C@H](CO)[C@@H](O)[C@H](O)[C@H]2O)[C@@H](O)[C@@H]1O` [sucrose, reference compound], the “STD NMR signals in the presence” value [3] is reported as “no STD NMR signals can be detected”.
For Rituximab: anti-CD20 antibody, the “patients suffering from severe side effects” value [5] is listed as 80%.
